22 molecules from patent US6713499B2, “7-Amino-benzothiazole derivatives” (Hoffman-La Roche Inc., priority 2001, dated 2004) can be followed below.

Molecules are shown by their SMILES.

The target of this assay is T1, human adenosine A2A receptor (Homo sapiens, UniProt P29274).
T1 construct: expressed in transfected cells; host or cells: CHO cells, Semliki Forest virus expression system; washed membrane pellet used
In words: [3H]-SCH-58261 binding assay on membranes of CHO cells expressing the human adenosine A2A receptor. The conditions noted are these: [3H]-SCH-58261 (1 nM) displacement, CHO cell membranes, SPA beads, 1 hour at room temperature, Ki by Cheng-Prussoff equation; for Ki: read-out: hA2 (pKi) (converted). The protocol:
Human Adenosine A2A Receptor
The human adenosine A2A receptor was recombinantly expressed in chinese hamster ovary (CHO) cells using the semliki forest virus expression system. Cells were harvested, washed twice by centrifugation, homogenised and again washed by centrifugation. The final washed membrane pellet was suspended in a Tris (50 mM) buffer containing 120 mM NaCl, 5 mM KCl, 2 mM CaCl2 and 10 mM MgCl2 (pH 7.4) (buffer A). The [3H]-SCH-58261 (Dionisotti et al., 1997, Br J Pharmacol 121, 353; 1 nM) binding assay was carried out in 96-well plates in the presence of 2.5 μg of membrane protein, 0.5 mg of Ysi-poly-1-lysine SPA beads and 0.1 U adenosine deaminase in a final volume of 200 μl of buffer A. Non-specific binding was defined using xanthine amine congener (XAC; 2 μM). Compounds were tested at 10 concentrations from 10 μM-0.3 nM. All assays were conducted in duplicate and repeated at least two times. Assay plates were incubated for 1 hour at room temperature before centrifugation and then bound ligand determined using a Packard Topcount scintillation counter. IC50 values were calculated using a non-linear curve fitting program and Ki values calculated using, the Cheng-Prussoff equation.

T1 sequence (P29274 whole entry): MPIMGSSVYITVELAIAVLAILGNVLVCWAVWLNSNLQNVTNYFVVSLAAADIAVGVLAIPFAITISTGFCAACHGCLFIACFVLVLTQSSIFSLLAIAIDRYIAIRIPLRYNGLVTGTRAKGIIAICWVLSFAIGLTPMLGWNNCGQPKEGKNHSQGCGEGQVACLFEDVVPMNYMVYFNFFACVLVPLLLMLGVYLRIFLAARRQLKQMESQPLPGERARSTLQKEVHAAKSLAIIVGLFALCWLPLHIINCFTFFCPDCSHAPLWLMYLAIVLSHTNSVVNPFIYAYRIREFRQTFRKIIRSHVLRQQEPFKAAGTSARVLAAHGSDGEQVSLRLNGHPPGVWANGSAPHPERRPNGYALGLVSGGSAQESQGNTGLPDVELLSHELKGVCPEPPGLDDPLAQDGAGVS

`COc1ccc(N(Cc2ccccc2)C(C)=O)c2sc(NC(=O)c3ccnc(Br)c3)nc12` [Example 25, N-[7-(Acetyl-benzyl-amino)-4-methoxy-benzothiazol-2-yl]-2-bromo-isonicotinamide]: the Ki is 0.0525 µM.

In the case of `CCN(C(C)=O)c1ccc(OC)c2nc(NC(=O)c3ccc(F)cc3)sc12` [Example 21, N-[7-(Acetyl-ethyl-amino)-4-methoxy-benzothiazol-2-yl]-4-fluoro-benzamide], the Ki is 0.01 µM.

`COCCN(C)c1ccc(OC)c2nc(NC(=O)c3ccccc3)sc12` [Example 1, N-{4-Methoxy-7-[(2-methoxy-ethyl)-methyl-amino]-benzothiazol-2-yl}-benzamide]: the Ki was 0.0525 µM.

Regarding `COc1ccc(N(C)Cc2ccccc2)c2sc(NC(=O)c3ccnc(N4CCOCC4)c3)nc12` [Example 35, N-[7-(Benzyl-methyl-amino)-4-methoxy-benzothiazol-2-yl]-2-morpholin-4-yl-isonicotinamide], the Ki was 0.011 µM.

With `COCCN(C)c1ccc(OC)c2nc(NC(=O)c3ccnc(N4CCOCC4)c3)sc12` [Example 6, N-{4-Methoxy-7-[(2-methoxy-ethyl)-methyl-amino]-benzothiazol-2-yl}-2-morpholin-4-yl-isonicotinamide], the Ki was 0.0525 µM.

For the molecule `COc1ccc(N(C)Cc2ccccc2)c2sc(NC(=O)c3ccnc(Br)c3)nc12` [Example 32, N-[7-(Benzyl-methyl-amino)-4-methoxy-benzothiazol-2-yl]-2-bromo-isonicotinamide], the Ki is 0.0331 µM.

Turning to `COc1ccc(N(C)Cc2ccccc2)c2sc(NC(=O)c3ccc(F)cc3)nc12` [Example 14, N-[7-(Benzyl-methyl-amino)-4-methoxy-benzothiazol-2-yl]-4-fluoro-benzamide], the Ki is 0.0389 µM.

Regarding `COCCN(C(C)=O)c1ccc(OC)c2nc(NC(=O)c3ccc(F)cc3)sc12` [Example 26, N-{7-[Acetyl-(2-methoxy-ethyl)-amino]-4-methoxy-benzothiazol-2-yl}-4-fluoro-benzamide], the Ki is 0.0178 µM.

With `COc1ccc(N(C)C2CCOCC2)c2sc(NC(=O)c3ccnc(N4CCOCC4)c3)nc12` [Example 38, N-{4-Methoxy-4-[methyl-(tetrahydro-pyran-4-yl)-amino]-benzothiazol-2-yl}-2-morpholin-4-yl-isonicotinamide], the “hA2 (pKi)” value is 7.33.

Regarding `COc1ccc(N(C)C2CCOCC2)c2sc(NC(=O)c3ccc(F)cc3)nc12` [Example 37, 4-Fluoro-N-{4-methoxy-7-[methyl-(tetrahydro-pyran-4-yl)-amino]-benzothiazol-2-yl}-benzamide], the Ki was 0.0562 µM.

Consider `COc1ccc(N(C)C(C)=O)c2sc(NC(=O)c3ccc(F)cc3)nc12` [Example 19, N-[7-(Acetyl-methyl-amino)-4-methoxy-benzothiazol-2-yl]-4-fluoro-benzamide], for which the Ki is 0.0132 µM.

Take `COc1ccc(CN(C)c2ccc(OC)c3nc(NC(=O)c4ccc(F)cc4)sc23)cc1` [Example 28, 4-Fluoro-N-{4-methoxy-7-[(4-methoxy-benzyl)-methyl-amino]-benzothiazol-2-yl}-benzamide]: the Ki is 0.049 µM.

For `COc1ccc(N(C)CC(=O)N(C)C)c2sc(NC(=O)c3ccc(F)cc3)nc12` [Example 17, N-[7-(Dimethylcarbamoylmethyl-methyl-amino)-4-methoxy-benzothiazol-2-yl]-4-fluoro-benzamide], the Ki was 0.0603 µM.

Take `COc1ccc(N(C)C)c2sc(NC(=O)c3ccc(F)cc3)nc12` [Example 12, N-(7-Dimethylamino-4-methoxy-benzothiazol-2-yl)-4-fluoro-benzamide]: the Ki is 0.0741 µM.

With `COc1ccc(N(C)Cc2ccccc2)c2sc(NC(=O)c3ccnc(C)c3)nc12` [Example 16, N-[7-(Benzyl-methyl-amino)-4-methoxy-benzothiazol-2-yl]-2-methyl-isonicotinamide], the Ki is 0.0155 µM.

As to `CCN(CC(=O)N(C)C)c1ccc(OC)c2nc(NC(=O)c3ccc(F)cc3)sc12` [Example 20, N-[7-(Dimethylcarbamoylmethyl-ethyl-amino)-4-methoxy-benzothiazol-2-yl]-4-fluoro-benzamide], the Ki was 0.0617 µM.

For `COCCN(C)c1ccc(OC)c2nc(NC(=O)c3ccc(CCl)cc3)sc12` [Example 3, 4-Chloromethyl-N-{4-methoxy-7-[(2-methoxy-ethyl)-methyl-amino]-benzothiazol-2-yl}-benzamide], the Ki was 0.0372 µM.

With `COc1ccc(N(C)Cc2ccccn2)c2sc(NC(=O)c3ccc(F)cc3)nc12` [Example 15, 4-Fluoro-N-[4-methoxy-7-(methyl-pyridin-2-ylmethyl-amino)-benzothiazol-2-yl]-benzamide], the Ki is 0.0617 µM.

`COc1ccc(N(Cc2ccccc2)C(C)=O)c2sc(NC(=O)c3ccc(F)cc3)nc12` [Example 24, N-[7-(Acetyl-benzyl-amino)-4-methoxy-benzothiazol-2-yl]-4-fluoro-benzamide]: the Ki is 0.0107 µM.

As to `COc1ccc(CN(C)c2ccc(OC)c3nc(NC(=O)c4ccnc(C)c4)sc23)cc1` [Example 30, N-{4-Methoxy-7-[(4-methoxy-benzyl)-methyl-amino]-benzothiazol-2-yl}-2-methyl-isonicotinamide], the Ki was 0.0263 µM.

For `COCCN(C)c1ccc(OC)c2nc(NC(=O)c3ccc(F)cc3)sc12` [Example 2, 4-Fluoro-N-{4-methoxy-7-[(2-methoxy-ethyl)-methyl-amino]-benzothiazol-2-yl}-benzamide], the Ki is 0.038 µM.

With `COc1ccc(N(Cc2ccc(C)cc2)C(C)=O)c2sc(NC(=O)c3ccccc3)nc12` [Example 10, N-{7-[Acetyl-(4-methyl-benzyl)-amino]-4-methoxy-benzothiazol-2-yl}-benzamide], the Ki was 0.0115 µM.
